From US20130210042A1, “DIAGNOSTIC AND PROGNOSTIC METHOD FOR HUMAN TAUOPATHIES” (CONSIGLIO NAZIONALE DELLE RICERCHE, priority 2010, published 2013)
Read-outs that look alike come from different tables or passages of the source. Each block holds one molecule with its values, some of them ahead of it. Peptide text beside a SMILES is read from it. * marks the point of attachment. Cbz = O=C(OCc1ccccc1)*; CH2F = FC*

Columns and labels:
AD patients = conditions: cited from earlier work
[1] = tested on: dbAMPc/NGF-differentiated human SH-SY5Y human neuroblastoma cells; experiment: Generation of the 20-22 kDa NH2 tau fragment in differentiated SH-SY5Y exposed to soluble AD brain extracts (Western blot); assay type: cell-based; conditions: 12 h with 1 mg/ml AD brain extract
Text: FIG. 5. The soluble extracts from AD brain homogenates containing Aβ oligomers induce neurotoxicity and production of the NH2-derived 20-22 kDa tau fragment through the caspase-(s) activation in human differentiated SY5Y. A-B): Biochemical characterization of native Aβ oligomers enriched by crude soluble proteins extracts of AD and age-matched non-demented control brain prepared as reported by, which contained almost no Aβ monomers since the ability of these low-molecular weight species to pass readily through the 10 kDa cutoff filters under the conditions used here. Samples extracted from two different AD brain specimens were pooled and retentates—obtained by 10 kDa cutoff filters (Vivaspin 4 VSO403)—were added to the cell culture at a final concentration of 1 mg/ml. […] Unheated samples were applied on the gel in two different lanes and after transfer the membrane was cut in two equal parts and analyzed in parallel. […] Each data point is the mean±SE (bars) of five independent experiments and statistically significant differences were calculated by paired t-Student's test (*p<0.05; ***p<0.001). […] Each data point is the mean±SE (bars) of three independent experiments and statistically significant differences were calculated by paired t-Student's test (*p<0.05; **p<0.01; ***p<0.001). […]

neuronal mitochondria = conditions: cited from earlier work; for intracellular ATP bioavailability: ATP synthesized by neuronal mitochondria
[2] = tested on: adenine nucleotide translocator (ANT-1); conditions: in vitro; cited from earlier work
[3] = biological target: T1, 20-22 kDa NH2-truncated tau fragment (human, UniProt P10636 26-547); experiment: co-immunoprecipitation from synaptosomes with CCP-NH2 tau as bait antibody
T1 construct: Endogenous fragment in human synaptosomes, mitochondria, CSF and STS-treated SH-SY5Y cells; Exact limits not proven; also called NH2htau; NH2 htau fragment
Method: A): Western blotting comparing synaptosomal proteins (500 μg) from ND, AD (ND, AD) subjects immunoprecipitated (IP) and probed (WB) with CCP—NH₂ tau (NH₂ aa 26-36 of human tau) antiserum. Total proteins extracts (70 μg unbound) from STS-treated (6hSY5Y) neuronal human SY5Y and from AD synaptosomal proteins (INPUT) were also loaded for lane and included as positive internal control of electrophoretic mobility and immunoprecipitation efficiency. It is noteworthy that a NH₂-tau fragment around 20-22 kDa (arrow), but not-full-length proteins running at 55-75 kDa(arrowheads), was efficiently immunoprecipitated by CCP—NH₂ tau antiserum on synaptic-enriched fractions from AD. The asterisk indicate immunoglobulin light chains in immunoprecipitates and no significant cross-reactions with human intact tau iso forms was found in total, un-precipitated proteins. B-F): In C), Western blotting analysis comparing synaptosomal proteins (500 μg) from ND, AD (ND, AD) subjects immunoprecipitated (IP) with CCP—NH₂ tau (NH₂ aa26-36 of human tau) antiserum and probed (WB) with ANT-1 antibody (the least C-terminal 12 amino acids of human neuronal ANT-1). […]
Next the authors analyzed whether ANT-1—the neuronal-specific isoform of ANT protein—was a mitochondrial target of the NH₂htau fragment.

T1 sequence (P10636 other isoform, or with tags, fused parts or gaps limits assumed): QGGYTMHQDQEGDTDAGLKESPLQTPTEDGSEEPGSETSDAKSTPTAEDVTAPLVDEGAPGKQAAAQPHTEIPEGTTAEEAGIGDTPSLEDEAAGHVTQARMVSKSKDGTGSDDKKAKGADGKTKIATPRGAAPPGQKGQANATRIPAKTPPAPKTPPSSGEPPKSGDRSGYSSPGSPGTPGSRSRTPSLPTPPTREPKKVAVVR

Molecule: Cc1ccc2c(c1)c1c(n2CCc2ccc(C)nc2)CCN(C)C1 [Dimebon]
duration of improved cognitive performance in AD patients (AD patients): 12-18 months

Molecule: COC(=O)C[C@H](NC(=O)[C@H](C)NC(=O)[C@@H](NC(=O)OCc1ccccc1)C(C)C)C(=O)CF [Z-VADfmk] (Cbz-Val-Ala-Asp(OMe)-CH2F)
appearance of 20-22 kDa NH2 tau fragment after pre-incubation with protease inhibitor ([1]; 100 μM Z-VADfmk or 20 μM MDL28170): significantly reduced the appearance of 20-22 kDa NH2 tau fragment | caspase-3 activation (cleaved caspase-3 Western blot) ([1]; 100 μM Z-VADfmk): blocking the caspase-3 activation

Molecule: NH2-26-44 peptide: synthesized NH2-26-44 tau peptide, minimal active moiety of the NH2-26-230 human tau fragment (QGGYTMHQDQEGDTDAGLK)
intracellular ATP bioavailability (neuronal mitochondria): reduces the intracellular ATP bioavailability | intracellular ATP bioavailability (neuronal mitochondria; listed as NH226-44 tau): reduced the intracellular bioavailability of ATP | mitochondrial oxidative phosphorylation (neuronal mitochondria; in vitro): impairs the mitochondrial oxidative phosphorylation | ANT-1-mediated ADP/ATP exchange [2]: specifically inhibited the ANT-1-mediated ADP/ATP exchange in a non-competitive manner

binding result [3]: no binding
B1: MnSOD-II (enzyme, human, UniProt P04179 25-222, looked up)
chain: KHSLPDLPYDYGALEPHINAQIMQLHHSKHHAAYVNNLNVTEEKYQEALAKGDVTAQIALQPALKFNGGGHINHSIFWTNLSPNGGGEPKGELLEAIKRDFGSFDKFKEKLTAASVGVQGSGWGWLGFNKERGHLQIAACPNQDPLQGTTGLIPLLGIDVWEHAYYLQYKNVRPDYLKAIWNVINWENVTERYMACKK
notes: also called mitochondrial superoxide dismutase
